In patent publication US11690810B2, “Combination treatment of bacterial infection” (The Chinese University of Hong Kong, priority 2018, dated 2023):
Values after ≈ are worked out from the molar mass of the structure shown. Where two headings read alike, the source gives them in different places.

Key:
[1] = test system: cytokines production of human macrophages stimulated with PGN or SEB; format: cell-based
[2] = test system: S. aureus SA-1199B (NorA efflux pump overexpressed); assay: MIC and checkerboard (FIC) assay
[3] = test system: adherence of MRSA strain JE-2 to HaCat keratinocytes; assay: Bacterial adherence to HaCaT keratinocytes; format: cell-based, Staphylococcus aureus
[4] = test system: S. aureus ATCC25923 (methicillin sensitive); assay: MIC and checkerboard (FIC) assay; conditions: Staphylococcus aureus
[5] = physchem; conditions: aqueous with cosolvent or surfactant or cyclodextrin
[6] = test system: S. aureus SA-APH2″-AAC6′ (APH2), resistant to gentamicin; assay: MIC and checkerboard (FIC) assay
[7] = test system: clinical MRSA ST239; assay: Mouse pneumonia model, ST239 (neutropenic mice); format: in vivo, Balb/c mice; conditions: ST239; 48 h; 1 also died in control
[8] = test system: cytokines production of human PBMC stimulated with PGN or SEB; format: cell-based
[9] = test system: MRSA SA-ST239; assay: MIC and checkerboard (FIC) assay; conditions: Staphylococcus aureus, MRSA
[10] = test system: clinical community-associated (CA) and hospital-associated (HA) MRSA strains; assay: MIC and combination tests, panel of clinical strains; conditions: range over clinical CA and HA MRSA strains (Table 3)
[11] = test system: Panton-Valentine leukocidin positive CA-MRSA strain ST30; format: in vivo, Balb/c mice; conditions: ST30
[12] = test system: adherence of MRSA strain JE-2 to fibrinogen; assay: Fibrinogen-binding adherence assay (crystal violet); format: cell-based, Staphylococcus aureus; conditions: kuraridin at 1.0 μg/ml
[13] = test system: internalization of MRSA strain JE-2 by HaCat keratinocytes; assay: Internalization of S. aureus by HaCaT keratinocytes; format: cell-based, Staphylococcus aureus
[14] = test system: Human Umbilical Vein Endothelial Cells (HUVEC); assay: XTT cytotoxicity testing; conditions: 2-64 μg/ml, vs drug free control
[15] = test system: S. aureus SA-APH3′ (APH3), resistant to kanamycin; assay: MIC and checkerboard (FIC) assay
[16] = test system: panel of laboratory MRSA strains; assay: MIC and combination tests, panel of laboratory strains
[17] = test system: human peripheral blood mononuclear cells (PBMC); assay: XTT cytotoxicity testing; format: cell-based; conditions: 2-64 μg/ml, vs drug free control
Protocol: (§1) The plates were maintained in a 37° C. incubator.
The cytotoxicity of kuraridin and its analogues were determined by the sodium 3′-[1-(phenylaminocarbonyl)-3,4-tetrazolium]-bis (4-methoxy-6-nitro) benzene sulfonic acid hydrate (XTT) assay.
Serial dilutions of the compounds ranging 2-64 μg/ml were incubated with PBMCs at 37° C. for 72 hrs.

[18] = test system: S. aureus SA-RN4220-pUL5054 (RN4220); assay: MIC and checkerboard (FIC) assay
[19] = test system: S. aureus SA-ANT4′ (ANT4), resistant to fusidic acid; assay: MIC and checkerboard (FIC) assay
[20] = test system: Human Mammary Epithelial Cell (HMEC); assay: XTT cytotoxicity testing; format: cell-based; conditions: 2-64 μg/ml, vs drug free control
Protocol: as §1

[21] = test system: bacterial aggregation of MRSA JE-2; assay: Aggregation assay of MRSA JE-2; format: cell-based, Staphylococcus aureus; conditions: kuraridin at 4 μg/ml
[22] = test system: panel of MRSA strains; conditions: previous study (12); cited from earlier work
[23] = Staphylococcus aureus, read-out: MIC 99.9
[24] = Staphylococcus aureus, read-out: MIC alone

With C=C(C)C(CC=C(C)C)Cc1c(O)cc(OC)c(C(=O)/C=C/c2ccc(O)cc2O)c1O (stereo not shown) [Kuraridin] the IFN-γ productions [1] was “could suppress”, the “IL-6 and IL-12 production” value [1] was “dose-dependently inhibited” and the TNF-α production [1] was “suppressed”. The FIC ([2]; 1199B, Kuraridin with ECG) was 0.25, the MIC combine ([2]; 1199B, Kuraridin with ECG) was 4 µg/mL and the MIC90 ([2]; Staphylococcus aureus) was 16 µg/mL. The MIC99 [2, 23] was 16 µg/mL, the MIC ([2]; Staphylococcus aureus, read-out: MIC alone, 1199B, Kuraridin and ECG section) was 16 µg/mL and the “adherence of WT strain to HaCaT cells” value ([3]; 2 μg/ml kuraridin (0.25×MIC)) was “abolished”. For the same compound, the “percentage of adherence of the bacteria” value ([3]; kuraridin 0.25 μg/ml) was 28.4±3.2%, the “percentage of adherence of the bacteria” value ([3]; kuraridin 0.5 μg/ml) was 17.8±11.1% and the “percentage of adherence of the bacteria” value ([3]; kuraridin 1 μg/ml) was 7.6±3.7%. For the same compound, the MIC90 ([4]; ATCC25923) was 8 µg/mL, the MIC99 ([4]; ATCC25923, read-out: MIC 99.9) was 8 µg/mL and the solubility [5] was 20 mg/mL (≈ 45.6 mM). The FIC ([6]; APH2, Kuraridin with ECG) was 0.25, the MIC combine ([6]; APH2, Kuraridin with ECG) was 2 µg/mL and the MIC90 ([6]; Staphylococcus aureus) was 8 µg/mL. For the same compound, the MIC99 [6, 23] was 8 µg/mL, the MIC [6, 24] was 8 µg/mL and the mice died [7] was 1 mouse. The “IL-10 and IL-12 production” value [8] was “dose-dependently inhibited”, the MIC90 [9] was 8 µg/mL and the MIC99 ([9]; read-out: MIC 99.9) was 8 µg/mL. The “MICs in kuraridin and ECG combined treatment” value [10] was 1 to 4 µg/mL, the “log CFU counts (left lung)” value ([11]; kuraridin 120 mg/kg, ECG 120 mg/kg, 48 h, control 9.24±0.15) was 8.25±0.39 log CFU and the survival rates ([11]; kuraridin 120 mg/kg, ECG 120 mg/kg, control 30%) was 50%. For the same compound, the “log CFU counts and survival rates” value ([11]; used alone at 60 and 120 mg/kg) was “could not reduce the log CFU counts or improve the survival rates”, the “reduction in the adherence of the WT strain to fibrinogen” value [12] was 100% and the “percentage of internalized bacteria by HaCaT cells” value ([13]; kuraridin 0.25 μg/ml) was 23.8±4.6%. For the same compound, the “percentage of internalized bacteria by HaCaT cells” value ([13]; kuraridin 0.5 μg/ml) was 15.8±2.0%, the “Cellular toxicity (XTT assay)” value [14] was “not toxic” and the FIC ([15]; APH3, Kuraridin with ECG) was 0.25. The MIC combine ([15]; APH3, Kuraridin with ECG) was 2 µg/mL, the MIC90 ([15]; Staphylococcus aureus) was 8 µg/mL and the MIC99 [15, 23] was 8 µg/mL. For the same compound, the MIC [15, 24] was 8 µg/mL, the MIC99 ([16]; Staphylococcus aureus, MRSA) was 8 to 16 µg/mL and the “MICs in kuraridin and ECG combined treatment” value ([16]; range over laboratory strains (Table 2)) was 2 to 4 µg/mL. The “Cellular toxicity (XTT assay)” value [17] was “not toxic”, the FIC ([18]; RN4220, Kuraridin with ECG) was 0.25 and the MIC combine ([18]; RN4220, Kuraridin with ECG) was 2 µg/mL. The MIC90 ([18]; Staphylococcus aureus) was 8 µg/mL, the MIC ([18]; Staphylococcus aureus, read-out: Activity (MIC, μg/ml)) was 8 µg/mL and the MIC99 [18, 23] was 8 µg/mL. The MIC [18, 24] was 8 µg/mL, the FIC ([19]; ANT4, Kuraridin with ECG) was 0.25 and the MIC combine ([19]; ANT4, Kuraridin with ECG) was 2 µg/mL. It also gave an MIC90 ([19]; Staphylococcus aureus) of 4 µg/mL, an MIC99 [19, 23] of 8 µg/mL and an MIC [19, 24] of 8 µg/mL. For the same compound, the “Cellular toxicity (XTT assay)” value [20] was “not toxic”, the “aggregation lower than the mutant ΔSrtA” value [21] was 3.7 folds and the “reduction in bacterial aggregation as compared to the wild type without drug” value [21] was 4.4 fold. For the same compound, the “minimum inhibitory concentration (MIC)” value [22] was “around 8 μg/ml”.
